# Results from US20130101666A1, “LIPOSOME INCLUDING ELASTIN-LIKE POLYPEPTIDE CONJUGATED TO MOIETY CONTAINING HYDROPHOBIC GROUP, CHEMOSENSITIZER AND ANTICANCER AGENT AND USE THEREOF” (SAMSUNG ELECTRONICS CO., LTD., priority 2011, published 2013).
# Legend:
# [1] = Amounts of drugs entrapped in liposomes by loading method (HPLC); format: physicochemical
# Procedure: Two types of drugs, i.e., doxorubicin and verapamil, were loaded in the liposome. The loading process was performed using an ammonium sulfate gradient method (J. Control. Release 2009, 139, 73-80) or a pH-gradient method (Biochimica et Biophysica Acta 1985, 816, 294-302). In the loading process by the ammonium sulfate gradient method, a drug was added to the liposome solution formed of liposomes with 250 mM or 150 mM of ammonium sulfate inside and 25 mM of Tris-HCl buffer outside. The loading process was performed at a temperature of 37° C. for 60 minutes. In the loading process by the pH-gradient method, a drug was added to the liposome solution formed of liposomes with 300 mM of citrate buffer (pH 4.0) inside and 20 mM of HEPES buffer (150 mM NaCl, pH 7.4) outside. The loading process was performed at a temperature of 37° C. for 60 minutes.
# The prepared liposome solution was passed through PD-10 (GE Healthcare) desalting column by flowing physiological saline therethrough to remove unentrapped drug.
# Doxorubicin and verapamil entrapped in the liposomes were analyzed by high performance liquid chromatography (HPLC).
# The liposomes co-encapsulating certain amounts of doxorubicin and verapamil were diluted and dissolved in dimethylsulfoxide (DMSO) and then introduced into a HPLC column. The analysis by HPLC was performed by eluting the drugs using KH2PO4/MeCN as an eluent and measuring absorbance thereof at 280 nm.
# In the loading process, initial concentrations of doxorubicin and verapamil were 500 μg and 250 μg, respectively, based on 1 mL of the liposome solution.
# NCI/ADR-RES cells [2] = experiment: cells; details: Homo sapiens, 10 min, read-out: cell viability
# Procedure: (§1) In addition, cytotoxicity of the liposome with doxorubicin and verapamil entrapped therein against NCI/ADR-RES cells was confirmed. […] 50% based on the weight of doxorubicin of verapamil, was contained in the liposome. […] In this experiment, NCI/ADR-RES cells were incubated in each of a MEM containing free doxorubicin and a MEM containing the liposome with doxorubicin and verapamil entrapped therein, 10 volume % FBS, and 1 wt % PS at 37° C. for 48 hours. In particular, NCI/ADR-RES cells (5.0×10^4 cells) were cultured in MEM containing 10% (v/v) FBS and 1% penicillin/streptomycin in a well of the 24-well plate for 48 hours. The cultured NCI/ADR-RES cells were treated with the liposomes containing doxorubicin and verapamil at a variety of concentrations, immediately placed in a thermoshaker, and then incubated at 37° C. for 10 minutes. […] Thereafter, the NCI/ADR-RES cells were cultured at 37° C. for 48 hours, and the viability of the NCI/ADR-RES cells was measured using CCK-8 assay kit (Dojindo) by WST (water soluble tetrazolium) assay.
# (§2) NCI/ADR-RES cells (5.0×10^4 cells) were cultured in MEM containing 10% (v/v) FBS and 1% penicillin/streptomycin in a well of the 24-well plate for 48 hours. […] Thereafter, the NCI/ADR-RES cells were cultured at 37° C. for 46 hours, and the viability of the NCI/ADR-RES cells was measured using CCK-8 assay kit (Dojindo) by WST assay. […]
# NCI/ADR-RES cells [3] = details: 45° C. for 10 minutes; 10 ug doxorubicin/mL (liposome: +5 ug verapamil/mL); FIG. 7A/7B
# Procedure: as §1, §2
# NCI/ADR-RES cells [4] = experiment: Viability of NCI/ADR-RES cells cultured in the presence of doxorubicin (WST assay); format: cell-based; details: Homo sapiens, 20 ug/mL doxorubicin, 37° C. for 2 hours, fresh media, 2 days, FIG. 1, read-out: NCI/ADR-RES cells survived (viability)
# Procedure: Tumor cells having a resistance against doxorubicin, i.e., NCI/ADR-RES cells, were cultured in the presence of doxorubicin and the viability of the cells was evaluated. NCI/ADR-RES cells are tumor cells derived from OVCAR-8.
# NCI/ADR-RES cells were incubated in minimum essential media (MEM) containing various concentrations of doxorubicin (0.1, 0.5, 1.0, 2.5, 5.0, 10 or 20 ug/mL), 10 volume % fetal bovine serum (FBS), and 1 wt % penicillin-streptomycin (PS) at 37° C. for 2 hours. After the MEM was replaced with fresh media, the cells were incubated at 37° C. for 2 days. The viability of the cells was evaluated by water soluble tetrazolium (WST) assay. FIG. 1 is a graph showing the viability of NCI/ADR-RES cells when being cultured in the presence of doxorubicin.
# [5] = ammonium sulfate gradient method, 150 mM ammonium sulfate (inside), 25 mM Tris HCl buffer (outside), initial doxorubicin 500 μg, verapamil 250 μg per 1 mL
SMILES,"amount of entrapped verapamil [1, 5]",viability at 20 µg/mL (NCI/ADR-RES cells [2]),"amount of entrapped doxorubicin [1, 5]","amount of entrapped doxorubicin ([1]; ammonium sulfate gradient method, 250 mM ammonium sulfate (inside), 25 mM Tris HCl buffer (outside), initial doxorubicin 500 μg, verapamil 250 μg per 1 mL)","amount of entrapped doxorubicin ([1]; pH-gradient method, 300 mM citrate buffer (pH 4.0) (inside), 20 mM HEPES buffer (150 mM NaCl, pH 7.4) (outside))",cell viability (NCI/ADR-RES cells [3]),viability at 20 µg/mL (NCI/ADR-RES cells [4])
"COc1ccc(CCN(C)CCCC(C#N)(c2ccc(OC)c(OC)c2)C(C)C)cc1OC (racemic) [Verapamil, (RS)-2-(3,4-dimethoxyphenyl)-5-{[2-(3,4-dimethoxyphenyl)ethyl]-(methyl)amino}-2-prop-2-ylpentanenitrile]",1.4 µg/mL,,,,,,
"COc1cccc2c1C(=O)c1c(O)c3c(c(O)c1C2=O)C[C@@](O)(C(=O)CO)C[C@@H]3O[C@H]1C[C@H](N)[C@H](O)[C@H](C)O1 [Doxorubicin, doxorubicin]",,50%,36.5 µg/mL,404 µg/mL,42 µg/mL,about 70%,> 70%
